# Measurements reported in BindingDB's records for doi:10.1016/j.bioorg.2016.11.003 (Linyi People's Hospital, 2017).
# Molecular target: T1, Forkhead box protein M1 [235-327] (Human, UniProt Q08050)
# T1 construct: 235-327
# T1 sequence (Q08050 whole entry): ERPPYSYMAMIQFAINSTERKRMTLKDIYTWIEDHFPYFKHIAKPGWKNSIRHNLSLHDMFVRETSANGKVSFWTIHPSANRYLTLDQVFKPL
# Test: Fluorescence-based Affinity Assay
# Protocol: The fluorescence emission spectra of tryptophan residues were used to monitor the changes in local chemical environment of protein upon ligand binding [Zhu et al., Bioorg. Chem., 68:259-265; Tyler et al., Biochemistry, 49:951-957]. The protein concentration was kept at a constant. Changes in fluorescence were measured upon titration of tested compound to protein solution. Fluorescence was measured by a PE fluorescence spectrophotometer.
row,Kd [µM],Compound
1,230,CCC[C@H]1C(=O)N[C@]2(C(=O)O[C@@H]2[C@H]2C=CCCC2)[C@@]1(C)O [CID 50943806]
2,56,Cc1cccc2c(/C=C/C(=O)O)cc(C(C)C)c(O)c12 [CID 53708511]
3,17,CC1=C(C(=O)OC(C)C)C(c2ccc([N+](=O)[O-])cc2)NC(=S)N1 (stereo unspecified) [CID 2748293]
4,120,O=c1[nH]nc(-c2ccccc2)c(=S)n1-c1ccc(F)c(Cl)c1 [CID 2751638]
5,26,COc1ccccc1C(=O)C(CCC(=O)O)c1ccccc1OC (stereo unspecified) [CID 2748371]
6,3.8,N=c1sc(C(=O)c2cccs2)nn1-c1ccccc1 [CID 2753793]
